pIC50: −log10 of the molar value.
Columns and labels:
Sarcoma-180 cells = test: Anti-tumor activity testing 1: life-prolonging rate in mice transplanted intraperitoneally with Sarcoma-180 cells; assay type: in vivo, Female ICR/CRJ mice; settings: day after transplantation
Protocol: Female ICR/CRJ mice of 5-week age were used as test animals (five head for each group).
(§1) Sarcoma-180 cells (1×10^6) were intraperitoneally transplanted to each of the test animals, each of the Pt(II) complexes listed in Table 1 was then injected intraperitoneally on the next day, and the life-prolonging rate was measured for each test group. Physiologically saline was used as the solvent of injections.

L1210 cells [1] = test: Anti-tumor activity testing 2: life-prolonging rate in mice transplanted intraperitoneally with L1210 cells; assay type: in vivo, Female BDF1 mice; settings: days 1, 5 and 9
Protocol: Female BDF1 mice of 5-week age were used as test animals (five head for each group).
as §1, with “L1210” for “Sarcoma-180”, “(1×10^5)” for “(1×10^6)”, “2” for “1”, “one” for “on the next”, “day, five days and nine days after transplantation (a total of three times),” for “day,”

Colon 38 cells = test: Anti-tumor activity testing 3: tumor-growth inhibition of subcutaneous Colon 38, intraperitoneal injection; assay type: in vivo, female BDF mice; settings: days 1, 8 and 15, 21 days after transplantation
Protocol: female BDF mice of 5-week age were used as test animals (five head for each group).
Colon 38 cells (40 mg) were subcutaneously transplanted to each of the test animals at the haunch, each of the Pt(II) complexes listed in Table 3 was then injected intraperitoneally 1 day, 8 days and 15 days after transplantation (a total of three times), and the tumor-growth inhibition rate was measured for each test group 21 days after transplantation.

L1210 cells [2] = test: Growth inhibition of L1210 cells ([3H]-thymidine uptake); assay type: cell-based, mouse; settings: 46 h incubation plus 2 h with [3H]-thymidine, 37° C.
Protocol: (§2) L1210 cells and cisplatin-resistant L1210 cells under subcultivation were incubated in RPMI1640 medium containing 10% fetal bovine serum at 37° C. for 46 hours in an atmosphere containing 5% carbon dioxide. [^3 H]-thymidine was added to the grown cells, and incubation was continued for an additional two hours. The growth inhibition rate of a drug was calculated from the amounts of [^3 H]-thymidine taken into the cells in the presence and absence of that drug, and the 50% growth inhibition concentration (IC50) was determined from the graph of inhibition rate plotted against drug concentration. The degree of drug resistance was calculated from the ratio of IC50 for cisplatin-resistant L1210 cells to that for L1210 cells.

[3] = system: cisplatin-resistant L1210 cells; test: Growth inhibition of cisplatin-resistant L1210 cells ([3H]-thymidine uptake); assay type: cell-based, mouse; settings: for pIC50: 46 h incubation plus 2 h with [3H]-thymidine, 37° C.; for Degree of Resistance: ratio of IC50 for cisplatin-resistant L1210 cells to that for L1210 cells, 2880 min
Protocol: as §2

**Q.** Which “Life-prolonging Rate” value (Sarcoma-180 cells; 4.0 mg/Kg × 1, i.p.) does the source give for `O=C1C[O][Pt]2([NH]C3CCCC(O)C3[NH]2)[O]1` (stereo not drawn) [Compound No. 3, Cis-glycolato-(1/2,3)-2,3-diamino-1-cyclohexanolplatinum(II)] here?
**A.** The value was 212%.

**Q.** What about the “Life-prolonging Rate” value (Sarcoma-180 cells; 8.0 mg/Kg × 1, i.p.) of the same compound?
**A.** The value was 182%.

**Q.** What about the “Life-prolonging Rate” value (Sarcoma-180 cells; 16.0 mg/Kg × 1, i.p.) of the same compound?
**A.** Its value is 252%.

**Q.** And the “Life-prolonging Rate” value (L1210 cells [1]; 7.5 μmol/Kg × 3, i.p.)?
**A.** The value was 116%.

**Q.** What about the “Life-prolonging Rate” value (L1210 cells [1]; 15.0 μmol/Kg × 3, i.p.) of the same compound?
**A.** Its value is 122%.

**Q.** And the “Life-prolonging Rate” value (L1210 cells [1]; 30.0 μmol/Kg × 3, i.p.)?
**A.** Its value is 147%.

**Q.** And the “Tumor-growth Inhibition Rate” value (Colon 38 cells; 20.0 μmol/Kg × 3, i.p.)?
**A.** Its value is 70%.

**Q.** And the “Tumor-growth Inhibition Rate” value (Colon 38 cells; 30.0 μmol/Kg × 3, i.p.)?
**A.** Its value is 72%.

**Q.** And the “Tumor-growth Inhibition Rate” value (Colon 38 cells; 45.0 μmol/Kg × 3, i.p.)?
**A.** Its value is 96%.

**Q.** And the pIC50 (L1210 cells [2])?
**A.** Its pIC50 is 5.89.

**Q.** What about the pIC50 [3] of the same compound?
**A.** The pIC50 was 5.60.

**Q.** What about the “Degree of Resistance” value [3] of the same compound?
**A.** The value was 1.9.

**Q.** With `NC1CCCC(N)C1.O=C1[O][Pt][O]C1=O` (stereo not drawn) [Compound No. 4, Cis-oxalato-1,3-diaminocyclohexaneplatinum(II)] as the compound, how does the “Life-prolonging Rate” value (Sarcoma-180 cells; 4.0 mg/Kg × 1, i.p.) read?
**A.** Its value is 248%.

**Q.** What about the “Life-prolonging Rate” value (Sarcoma-180 cells; 8.0 mg/Kg × 1, i.p.) of the same compound?
**A.** Its value is 258%.

**Q.** And the “Life-prolonging Rate” value (Sarcoma-180 cells; 16.0 mg/Kg × 1, i.p.)?
**A.** Its value is 364%.

**Q.** And the “Life-prolonging Rate” value (L1210 cells [1]; 7.5 μmol/Kg × 3, i.p.)?
**A.** The value was 127%.

**Q.** What about the “Life-prolonging Rate” value (L1210 cells [1]; 15.0 μmol/Kg × 3, i.p.) of the same compound?
**A.** The value was 222%.

**Q.** What about the “Life-prolonging Rate” value (L1210 cells [1]; 30.0 μmol/Kg × 3, i.p.) of the same compound?
**A.** The value was 245%.

**Q.** What about the “Tumor-growth Inhibition Rate” value (Colon 38 cells; 20.0 μmol/Kg × 3, i.p.) of the same compound?
**A.** The value was 54%.

**Q.** And the “Tumor-growth Inhibition Rate” value (Colon 38 cells; 30.0 μmol/Kg × 3, i.p.)?
**A.** The value was 77%.

**Q.** And the “Tumor-growth Inhibition Rate” value (Colon 38 cells; 45.0 μmol/Kg × 3, i.p.)?
**A.** The value was 88%.

**Q.** What about the pIC50 (L1210 cells [2]) of the same compound?
**A.** The pIC50 was 5.62.

**Q.** What about the pIC50 [3] of the same compound?
**A.** The pIC50 was 5.30.

**Q.** What about the “Degree of Resistance” value [3] of the same compound?
**A.** Its value is 2.1.

**Q.** What does the source list for `O=S1(=O)[O][Pt]2([NH]C3CCCC(C3)[NH]2)[O]1` [Compound No. 5, Cis-sulfato-1,3-diaminocyclohexaneplatinum(II)]?
**A.** Life-prolonging Rate (Sarcoma-180 cells; 4.0 mg/Kg × 1, i.p.): 202%; Life-prolonging Rate (Sarcoma-180 cells; 8.0 mg/Kg × 1, i.p.): 187%; Life-prolonging Rate (Sarcoma-180 cells; 16.0 mg/Kg × 1, i.p.): 236%; Life-prolonging Rate (L1210 cells [1]; 7.5 μmol/Kg × 3, i.p.): 121%; Life-prolonging Rate (L1210 cells [1]; 15.0 μmol/Kg × 3, i.p.): 189%; Life-prolonging Rate (L1210 cells [1]; 30.0 μmol/Kg × 3, i.p.): 155%; Tumor-growth Inhibition Rate (Colon 38 cells; 20.0 μmol/Kg × 3, i.p.): 36%; Tumor-growth Inhibition Rate (Colon 38 cells; 30.0 μmol/Kg × 3, i.p.): 56%; Tumor-growth Inhibition Rate (Colon 38 cells; 45.0 μmol/Kg × 3, i.p.): 56%; pIC50 (L1210 cells [2]): 5.51; pIC50 [3]: 5.10; Degree of Resistance [3]: 2.5

**Q.** How did the “Life-prolonging Rate” value (Sarcoma-180 cells; 16.0 mg/Kg × 1, i.p.) turn out when `NC1CCCC(N)C1.O=C1[O][Pt][O]C(=O)C12CCC2` [Compound No. 6, Cis-cyclobutane-1,1-dicarboxylato-1,3-diaminocyclohexaneplatinum(II)] was run?
**A.** The value was 126%.

**Q.** What about the “Life-prolonging Rate” value (Sarcoma-180 cells; 32.0 mg/Kg × 1, i.p.) of the same compound?
**A.** Its value is 106%.

**Q.** And the “Life-prolonging Rate” value (L1210 cells [1]; 30.0 μmol/Kg × 3, i.p.)?
**A.** The value was 98%.

**Q.** And the “Life-prolonging Rate” value (L1210 cells [1]; 60.0 μmol/Kg × 3, i.p.)?
**A.** The value was 104%.

**Q.** Which results are given for `O=S1(=O)[O][Pt]2([NH]C3CC([NH]2)C(O)C(O)C3O)[O]1` (stereo not drawn) [Compound No. 7, Cis-sulfato-2-deoxystreptamineplatinum(II)]?
**A.** Life-prolonging Rate (Sarcoma-180 cells; 8.0 mg/Kg × 1, i.p.): 126%; Life-prolonging Rate (Sarcoma-180 cells; 16.0 mg/Kg × 1, i.p.): 120%; Life-prolonging Rate (Sarcoma-180 cells; 32.0 mg/Kg × 1, i.p.): 241%; Life-prolonging Rate (L1210 cells [1]; 15.0 μmol/Kg × 3, i.p.): 102%; Life-prolonging Rate (L1210 cells [1]; 30.0 μmol/Kg × 3, i.p.): 109%; Life-prolonging Rate (L1210 cells [1]; 60.0 μmol/Kg × 3, i.p.): 119%

Source: patent publication US5041579A, “Platinum complexes and uses therewith” (Ajinomoto Co., Inc., priority 1987, dated 1991)
